Structures are written as SMILES. ± gives the expanded uncertainty stated by the source.

For data set [1] the following is noted: Crystal; DSC.
Data set [2] is described as follows: Molar enthalpy of transition or fusion. The settings on record: Crystal; DSC.

As to `Nc1nc(Cl)cc(Cl)n1` [2-amino-4,6-dichloropyrimidine], in data set [1], the Triple point temperature worked out at 496.42 ± 1.2 K. Further, the “Molar enthalpy of transition or fusion” value in data set [2] worked out at 19.5 ± 0.9 kJ/mol.

The values are drawn from the NIST ThermoML archive (doi:10.1021/acs.jced.8b00292).
